The text below walks through data of ChEMBL document CHEMBL1157539, “Thousands of chemical starting points for antimalarial lead identification” (Nature, 2010).

For the test, the system named is Plasmodium falciparum. Nature of the test: GSK_TCMDC: Inhibition of Plasmodium falciparum 3D7 in whole erythrocytes, using parasite LDH activity as an index of growth. The class given is functional, organism-based. The conditions noted are these: Plasmodium falciparum, 3D7.

`O=C(/C=C/c1ccc(Cl)c(Cl)c1)NC1CCC(CN2CCC(c3nc4ccccc4n3CCCO)CC2)CC1` (stereo unspecified) had an XC50 of 0.577 µM.

`COc1ccc(Nc2nc(NC3CCN(Cc4ccccc4)CC3)cc(-c3ccncc3)n2)cc1` had an XC50 of 0.992 µM.

`Cc1ccc(Nc2nc(C)cc(NC3CCCC3)n2)cc1` registered an XC50 of 0.292 µM.

Molecule `Cc1ccc(NC(=O)c2ccc(N3CCC(c4ccccc4C)CC3)nc2)cc1` displayed an XC50 of 1.4 µM.

In the case of `CCOC(=O)CCCCCNC[C@H](O)c1ccccc1`, the XC50 amounted to 0.328 µM.

Molecule `COc1ccc2nccc([C@@H](O)CN3CCC(NC(=O)c4nc(Cl)c(Cl)c(N)c4Cl)CC3)c2c1` showed an XC50 of 1.3 µM.

With `C=CCN1C(=O)C(=Cc2cc(Br)ccc2O)SC1=Nc1ccccc1`, the XC50 was 0.9 µM.

As for `O=C(NCc1ccccc1)c1nn(CCCN2CCC3(CC2)C(=O)NCN3c2ccccc2)cc1-c1ccc(Cl)c(Cl)c1`, the XC50 came to 1.05 µM.

As to `CCCN1CCN(CCCNC(=O)c2cc3c(Cl)nc4ccc(C)cc4c3s2)CC1`, the XC50 was found to be 0.802 µM.

As for `FC(F)(F)c1cccc(Nc2nc(-n3ccnc3)nc(-n3ccnc3)n2)c1`, the XC50 was found to be 0.724 µM.

`CC1(C)NC(N)=NC(=N)N1OCCCCCCOc1ccc(Cl)c2ccccc12` displayed an XC50 of 0.0032 µM.

With `CS(=O)(=O)Nc1ccc(OCCCCCCOc2ccc(NS(C)(=O)=O)cc2)cc1`, the XC50 was 0.493 µM.

Consider `COc1ccccc1-n1c(SCC(=O)Nc2ccccc2F)nc2cccnc21`, for which the XC50 amounted to 0.417 µM.

For the molecule `CCn1c(-c2nonc2N)nc2cnc(Oc3cccc(NC(=O)c4ccc(OCCCN5CCCCC5)cc4)c3)cc21`, the XC50 turned out to be 0.925 µM.

`CN1CCN(CCCNCc2cccc(Nc3nccc(Nc4ccc(Oc5ccccc5)cc4)n3)c2)CC1` displayed an XC50 of 0.765 µM.

With `CCCCOc1ccc(-c2nc3ccccc3[nH]2)cc1`, the XC50 worked out at 0.865 µM.

`CC(C)(C)c1ccc(CN2CCC(CNC(=O)c3cc(-c4ccccc4C(F)(F)F)cs3)C2)cc1` (stereo unspecified) displayed an XC50 of 1.24 µM.

In the case of `O=c1cc(NCCCNCc2cccc(OC(F)(F)C(F)F)c2)[nH]c2ccccc12`, the XC50 stood at 1.27 µM.

With `COc1cc(NC(=O)/C=C/c2ccc(-c3ccccc3)cc2)ccc1OCCN(C(C)C)C(C)C`, the XC50 was 0.843 µM.

Molecule `CN(CCCCNC(=O)c1cc2ccccc2[nH]1)C1CC2(CCN(C(=O)OC(C)(C)C)CC2)c2ccccc21` (stereo unspecified) showed an XC50 of 0.928 µM.

With `Nc1ccnc2ccc(NC(=O)CCCCCc3ccccc3)cc12`, the XC50 worked out at 0.86 µM.

`COc1ccc(-n2nc(C)c3c2NC(=O)CC3c2ccccc2OCc2ccccc2F)cc1` (stereo unspecified) displayed an XC50 of 0.901 µM.

With `CN1CCCC(CN2CCN(Cc3cccc(-c4ccc(-c5nc6cc(F)ccc6[nH]5)cc4)c3)CC2)C1` (stereo unspecified), the XC50 came out at 0.139 µM.

`C[C@H](NC(=O)[C@H](Cc1ccccc1)NC(=O)OC(C)(C)C)C(=O)N[C@@H](CC1CCCCC1)C(O)CN` (stereo partly specified) gave an XC50 of 0.733 µM.

In turn, `N=C(NCCc1ccccc1Cl)c1ccc2ccccc2c1` came in with an XC50 of 1.63 µM.

The molecule `O=C(/C=C/c1ccc(Cl)c(Cl)c1)NC1CCC(CN2CCC(c3nc4cccnc4[nH]3)CC2)CC1` (stereo unspecified) registered an XC50 of 1.23 µM.

On to `CCCOC(=O)c1ccc(OCCCON2C(=N)N=C(N)NC2(C)C)cc1`, for which the XC50 came to 0.0032 µM.

As for `CN(C)CCCn1cncc1-c1ccc2ncnc(Nc3ccc(OCc4ccccc4)cc3)c2c1`, the XC50 is 0.524 µM.

`Cc1cc(C(=O)OCC(N)=O)c(C)n1-c1ccc(F)cc1` gave an XC50 of 0.331 µM.

`Cc1csc(-c2nc(NCCc3c(C)noc3C)ncc2-c2ccsc2)n1` came in with an XC50 of 0.177 µM.

On to `CC1CCCN(S(=O)(=O)c2ccc(NC(=O)c3cc(-c4ccccc4O)n[nH]3)cc2)C1` (stereo unspecified), for which the XC50 is 0.757 µM.

For `Cc1ccc(O)cc1Nc1ccnc2ccc(-c3cccc(CN(C)C)c3)cc12`, the XC50 is 0.515 µM.

Turning to `Cc1ccc(C(=O)Nc2cccc([N+](=O)[O-])c2)cc1S(=O)(=O)N1CC(C)CC(C)C1` (stereo unspecified), the XC50 was determined as 0.794 µM.

In turn, `COCCn1c(C)cc(C(=O)CN2C(=O)NC(C)(c3ccc(C(C)(C)C)cc3)C2=O)c1C` (stereo unspecified) yielded an XC50 of 0.475 µM.

The molecule `OCCNc1nc(Nc2cccc(O)c2)nc2ccccc12` displayed an XC50 of 0.389 µM.

For the molecule `CCNc1cc(C(=O)N[C@@H](Cc2ccccc2)[C@H](O)CNC2CCCC2)cc(N2CCCC2=O)c1`, the XC50 was 0.0834 µM.

In the case of `CCN(CC)CCCC(C)Nc1cc(C)nc2cc(Cl)ccc12` (stereo unspecified), the XC50 was 0.726 µM.

`c1ccc2cc3c(Nc4ccc(N5CCCCCC5)cc4)ccnc3cc2c1` came in with an XC50 of 0.936 µM.

Consider `O=C(Nc1cccc(-c2ccc(-c3nc4cc(C(F)(F)F)ccc4[nH]3)cc2)c1)c1csnn1`, for which the XC50 came to 0.686 µM.

In turn, `O=c1cc(NCCCNCc2ccc(C(F)(F)F)cc2F)[nH]c2ccccc12` came in with an XC50 of 0.956 µM.

In turn, `COc1ccc2ccc(F)c(CC(=O)N3CCOC(CNCc4cccc(-c5ccsc5)n4)C3)c2n1` (stereo unspecified) had an XC50 of 1.17 µM.

The molecule `CC[C@H]1CN2CC[C@@H]1C[C@H]2[C@H](O)c1cc[n+]([O-])c2ccc(OC)cc12` had an XC50 of 0.748 µM.

Turning to `CCOC(=O)c1nc(-c2ccccc2)[nH]c1-n1nc(C)cc1C`, the XC50 was 0.686 µM.

Consider `CCCCC1(NC(=O)[C@@H](Nc2ccc(C#N)c3ccccc23)C2CCCCC2)CCCCC1`, for which the XC50 turned out to be 1.12 µM.

`O=C(NC1CCN(Cc2ccccc2)CC1)c1ccc(-c2nc3cc(F)c(F)cc3[nH]2)s1`: the XC50 came out at 0.835 µM.

In turn, `Cc1ccc2c(c1)c(-c1ccccc1)c(-c1ccccc1)n2CC(O)CN1CCN(CC=Cc2ccccc2)CC1` (stereo unspecified) yielded an XC50 of 0.782 µM.

Molecule `COc1ccc(-c2cnc(N)c(-c3ccc(C(N)=O)cc3)c2)cc1OC` registered an XC50 of 0.897 µM.

Take `COc1ccc(Cc2cnc3nc(N)nc(N)c3c2C)cc1OC`: the XC50 came out at 0.00941 µM.

For `COc1cc2nc(N3CCC(CNC(=O)c4ccc(NC(=O)c5ccc(Cl)cc5)cc4)CC3)nc(N)c2cc1OC`, the XC50 was found to be 0.264 µM.

The molecule `N#Cc1ccc(-c2ccc(C(=O)NCCCCN3CC=C(c4ccc5c(c4OCC4CC4)CCCC5)CC3)cc2)cc1` returned an XC50 of 0.623 µM.

`Nc1ccnc(N2CCC(CCOc3ccnc4cc(Cl)ccc34)CC2)c1` gave an XC50 of 1.16 µM.

In turn, `Cc1ccc(Cn2nc(Cl)c(N3CCNCC3)cc2=O)cc1NC(=O)Nc1ccc(-c2ccccc2)cc1` displayed an XC50 of 0.675 µM.

Regarding `COc1ccc(-c2ccc(NC(=O)c3cccc(Cl)c3)c(F)c2)cc1CN1CCCN(C)CC1`, the XC50 was 0.679 µM.

Consider `CNc1ccc(CNCc2cccc(-c3ccc(-c4nc5cccc(C)c5[nH]4)s3)c2)cc1`, for which the XC50 came to 0.987 µM.

`Oc1cc(-c2cccc(C(F)(F)F)c2)nc(Nc2ccc(Cl)c(Cl)c2)n1` had an XC50 of 0.759 µM.

The molecule `CC(C)CNCc1ccc(-c2ccc(CN(C(=O)Nc3ccccc3)C3CCN(Cc4ccccc4)CC3)cc2)cc1` returned an XC50 of 0.68 µM.

Turning to `Cc1cnc(C(=O)Nc2cccc(-c3cccc(-c4nc5cc(F)ccc5[nH]4)c3)c2)cn1`, the XC50 was found to be 0.771 µM.

Turning to `O=C(Nc1ccc(OC2CCN(Cc3ccc(F)cc3)CC2)cc1)c1cccs1`, the XC50 was 0.969 µM.

Turning to `Cc1ccc2c(=NN=Cc3ccc(N(C)C)cc3)cc(C)[nH]c2c1`, the XC50 was 0.881 µM.

Molecule `COc1ccc2nccc([C@@H](O)CN3CCC(NCc4ccc5sc(=O)[nH]c5c4)CC3)c2c1` registered an XC50 of 0.287 µM.

Turning to `CC(=O)Nc1ccc(OCCCN(Cc2ccccc2C(F)(F)F)c2ccc(C(F)(F)F)c(C#N)c2)c(Cl)c1`, the XC50 worked out at 1.45 µM.

The molecule `CCNc1cc(C(=O)N[C@@H](Cc2ccccc2)[C@H](O)CNC(C)(C)Cc2ccccc2)cc(N2CCCC2=O)c1` yielded an XC50 of 0.262 µM.

As for `Cc1ccc(C)c(NC(=O)NCCNc2ccnc(Nc3ccc(F)cc3)n2)c1`, the XC50 came to 0.817 µM.

For the molecule `CC(C)C1=CC(=NOS(=O)(=O)c2ccccc2)C=C(C(C)C)C1=O`, the XC50 was 0.712 µM.

On to `Cc1[nH]c(C)c(-c2ccc(CCc3ccc(F)cc3F)cc2)c(=O)c1Cl`, for which the XC50 is 0.0159 µM.

As for `COc1cc2nc(C)nc(Nc3ccc(Oc4ccccc4)cc3)c2cc1OC`, the XC50 was determined as 0.72 µM.

`N#Cc1ccc2[nH]cc(CN3CCC4(CC3)CN(CCNCc3ccccc3)C(=O)CO4)c2c1` came in with an XC50 of 0.758 µM.

Molecule `O=C(/C=C/c1c(Cl)cccc1Cl)NC1CCC(CN2CCC(Cc3cc4ccccc4[nH]3)CC2)CC1` (stereo unspecified) had an XC50 of 0.975 µM.

As for `COc1ccc(N2CCN(CCCOc3ccc(NC(=O)c4cc(Cl)cc(Cl)c4)cc3)CC2)c(OC)c1`, the XC50 was determined as 0.897 µM.

`COc1cccc(-c2ccc3ccnc(N)c3c2)c1` returned an XC50 of 0.408 µM.

Molecule `O=C(CCCCCNC(=O)c1ccc(O)c(-c2cccc(C(F)(F)F)c2)c1)NCCN1CCCCC1` came in with an XC50 of 0.888 µM.

In turn, `Nc1ncc(-c2ccc(NC(=O)Nc3cc(C(F)(F)F)ccc3F)cc2)c(N)n1` registered an XC50 of 0.719 µM.

For the molecule `COc1ccc(C=NN=c2cc(C)[nH]c3ccccc23)cc1OC`, the XC50 is 0.859 µM.

On to `CCCCCCCSc1ccc(CC(C)NCC(O)c2cccc(Cl)c2)cc1` (stereo unspecified), for which the XC50 worked out at 0.178 µM.

In turn, `CCNc1cc(C(=O)N[C@@H](Cc2ccccc2)[C@H](O)CNCc2cccc(-c3cncnc3)c2)cc(N2CCCC2=O)c1` showed an XC50 of 0.663 µM.

Take `CC(Cc1ccc(NC(=O)COc2ccc(CC(C)NCCc3cccc(Cl)c3)cc2)cc1)NCCc1cccc(Cl)c1` (stereo unspecified): the XC50 was determined as 0.0843 µM.

Molecule `CN1C(C)(C)CC(NC(=O)c2ccc(-c3nc4cc(Cl)ccc4[nH]3)cc2)CC1(C)C` displayed an XC50 of 0.991 µM.

The molecule `Fc1cccc(COc2ccc(Nc3ncnc4ccc(C#C[C@H]5CCCN5)cc34)cc2Cl)c1` showed an XC50 of 0.882 µM.

`CCCC(C)NC[C@@H](O)[C@H](Cc1ccccc1)NC(=O)c1cc(C2CCCC2)cc(N2CCCCS2(=O)=O)c1` (stereo partly specified) displayed an XC50 of 0.147 µM.

In the case of `CN(C)S(=O)(=O)c1ccc(N2CCN(CCC3(c4cccc(F)c4)CCN(C(=O)C(C)(C)C)CC3)CC2)c2nonc12`, the XC50 amounted to 0.697 µM.

Take `COc1ccc(Cn2c(Nc3cccc(C(F)(F)F)c3)nc3cc(C(=O)NC4CC4)cnc32)cc1Cl`: the XC50 came to 0.727 µM.

Consider `CCCCCCC(CC)c1cc(O)c2c(c1)OC(C)(C)c1ccncc1-2` (stereo unspecified), for which the XC50 amounted to 0.808 µM.

Molecule `Cc1ccc(C(=O)Nc2ccc(OC3CCN(CCC(C)C)C3)c(Cl)c2)cc1` (stereo unspecified) returned an XC50 of 0.991 µM.

On to `COc1ccc2[nH]c(C)cc(=NN=Cc3ccccc3F)c2c1`, for which the XC50 worked out at 0.365 µM.

`CCN(CC)c1ccc(C(c2ccc(N(CC)CC)cc2)c2ccc([N+](=O)[O-])cc2)cc1` yielded an XC50 of 0.946 µM.

As for `O=C(NCCCCN1CCC(c2ccc3ccccc3c2)CC1)c1ccc(NC(=O)c2ccc(Cl)cc2)cc1`, the XC50 came out at 0.226 µM.
